CC50, EC50 and IC50 data for 12 compounds are collected here from ChEMBL document CHEMBL6103548, “Recent advances in screening methods enabling the discovery of novel anti-hepatitis B virus drug candidates” (Eur J Med Chem, 2025).

Data set [1] is described as follows: Cytotoxicity against human HepDE19 cells. The data set is classed as toxicity, cell-based.
Data set [2] is described as follows: Cytotoxicity against SRluc-HBc6 cells (unknown origin). The data set is classed as functional.
Data set [3] can be described thus: Antiviral activity against HBV infected in SRluc-HBc6 cells. The data set is classed as functional, cell-based. The following applies: Hepatitis B virus.
The test system of data set [4] is Hepatitis B virus. The experiment in a line: Antiviral activity against Hepatitis B virus infected in human HePAD38 cells assessed as inhibition of viral DNA replication by qPCR analysis. The data set is classed as functional, organism-based. A general note: Real-time PCR tracks product formation cycle by cycle.
A short description of data set [5]: Cytotoxicity against human HePAD38 cells assessed as reduction in cell viability by XTT assay. The data set is classed as functional. For orientation: Tetrazolium assays rely on reduction of a dye to a coloured formazan, in cell work by metabolically active cells.
Data set [6] has as its system Hepatitis B virus. The experiment in a line: Antiviral activity against Hepatitis B virus infected in HepDE19 cells assessed as inhibition of viral replication. The data set is classed as functional, organism-based.
Data set [7] concerns Hepatitis B virus. The experiment in a line: Antiviral activity against HBV infected in human HePAD38 cells assessed as reduction in intracellular core HBV DNA replication by Southern blot analysis. The data set is classed as functional, organism-based.
Data set [8] is described as follows: Cytotoxicity against human HePAD38 cells assessed as reduction in cell viability incubated for 72 hrs by MTT assay. The data set is classed as functional.
Data set [9] relates to HepG2. The experiment in a line: Cytotoxicity against human HepG2 cells by XTT assay. The data set is classed as functional.
For data set [10], the system named is Hepatitis B virus. The experiment in a line: Antiviral activity against Hepatitis B virus assessed as inhibition of HbeAg level.
In data set [11] the test system is Hepatitis B virus. The experiment in a line: Antiviral activity against Hepatitis B virus assessed as inhibition of HbsAg level.
In data set [12] the test system is HepG2. The experiment in a line: Cytotoxicity against human HepG2 cells assessed as reduction in cell viability incubated for 24 hrs by CCK-8 assay. The data set is classed as functional.
Data set [13] concerns Hepatitis B virus. The experiment in a line: Antiviral activity against HBV infected in human HepG2 cells assessed as reduction in viral DNA replication. The data set is classed as functional, organism-based.
Data set [14] deals with HepG2. The experiment in a line: Cytotoxicity against human HepG2 cells assessed as reduction in cell growth. The data set is classed as functional.
Data set [15] concerns Hepatitis B virus. The experiment in a line: Antiviral activity against HBV infected in human HepG2-hNTCP cells assessed as inhibition of HBsAg formation. The data set is classed as functional, organism-based.

Where only a bound is given, the exact number is not on record here.

The compound `Cc1nc2cc(NC(=O)c3ccc(S(=O)(=O)N(C)Cc4ccccc4)cc3)ccc2s1` yielded a CC50 in data set [1] of 2.57 µM.

Regarding `O=C(CN(c1cc(C(F)(F)F)ccc1Cl)S(=O)(=O)c1ccccc1)NCc1ccncc1`, the CC50 in [1] is > 50 µM.

In the case of `CC1=C[C@@H]2C(=O)[C@]3(C=C(C)[C@H](O)[C@@]3(O)[C@@H]1O)[C@H](C)C[C@@H]1[C@H]2C1(C)C`, the CC50 in [2] is > 100 µM. The same compound registered an EC50 in data set [3] of 8.9 µM.

Take `Cc1c(C(=O)Nc2ccccc2)sc(N)c1C(N)=O`: the EC50 in the data set with Hepatitis B virus [4] amounted to 3.6 µM. For the same compound, the CC50 in data set [5] is > 300 µM.

In the case of `O=C(O)C1CC(OCCOc2ccc(-c3cc(=O)c4cccc(Cl)c4o3)cc2)C1` (configuration not stated), the EC50 with Hepatitis B virus [6] is 0.1 µM. It took 0.2 µM to reach half-maximal cytotoxicity in data set [1] (CC50).

Take `NC(=O)c1ccc(N)nc1` [6-AMINONICOTINAMIDE]: the EC50 with Hepatitis B virus [7] stood at 23.9 µM. Further, in data set [8], the CC50 was > 500 µM.

Turning to `Cc1cc(C2CCCCC2)n(O)c(=O)c1` [CICLOPIROX], in the data set on Hepatitis B virus [4], the EC50 was found to be 0.88 µM. In addition, the cytotoxic concentration (CC50) in the data set with HepG2 [9] is > 10 µM.

Regarding `C/C=C/C[C@@H](C)[C@@H](O)[C@H]1C(=O)N[C@@H](CC)C(=O)N(C)CC(=O)N(C)[C@@H](CC(C)C)C(=O)N[C@@H](C(C)C)C(=O)N(C)[C@@H](CC(C)C)C(=O)N[C@@H](C)C(=O)N[C@H](C)C(=O)N(C)[C@@H](CC(C)C)C(=O)N(C)[C@@H](CC(C)C)C(=O)N(C)[C@@H](C(C)C)C(=O)N1C` [CYCLOSPORINE], the IC50 was found to be 0.311 µM with Hepatitis B virus [10] and 0.372 µM with Hepatitis B virus [11].

As to `O=c1oc2ccccc2c(O)c1Cc1c(O)c2ccccc2oc1=O` [DICUMAROL], the CC50 in the data set with HepG2 [12] is > 800 µM. Also, the EC50 in the data set on Hepatitis B virus [13] was determined as 100 µM.

Take `CCCCC1=NC2(CCCC2)C(=O)N1Cc1ccc(-c2ccccc2-c2nnn[nH]2)cc1` [IRBESARTAN]: the CC50 in the data set on HepG2 [14] was determined as 287 µM. Further, the EC50 with Hepatitis B virus [15] is 35 µM.

`CC(=O)Oc1ccccc1C(=O)Nc1ncc([N+](=O)[O-])s1` [NITAZOXANIDE]: the CC50 in the data set with HepG2 [12] was 57 µM. Also, the EC50 in the data set on Hepatitis B virus [13] was < 10 µM.

`CCOC(=O)c1c(CSc2ccccc2)n(C)c2cc(Br)c(O)c(CN(C)C)c12` [UMIFENOVIR] gave a CC50 in [2] of 58.4 µM. The compound further showed an EC50 in data set [3] of 2.3 µM.

A word on the CC50: it is the concentration at which the toxic effect on the cells reaches its halfway point. Usually EC50 stands for the concentration at which the effect is half-maximal. As usually defined, the IC50 is the concentration that inhibits the measured activity by half.
